Here are results for three molecules from patent publication US11925649B2, “Treatments for diabetic neuropathy” (University of Manitoba, priority 2010, dated 2024).

Data set [1] concerns sensory neurons from DRG of non-diabetic Sprague Dawley rat. As to the kind of experiment: Neurite outgrowth from excised neurons from a normal rat. It is filed as cell-based. To be noted: 24 hr; for neurite outgrowth rates: higher dosages 0.1 to 10.0 μM; for neurite outgrowth: lowest dosage of 0.01 μM. The text has this: Sensory neurons from cervical, thoracic and lumbar DRG of a 3-4 month old adult male ZDF diabetic rat (model of type 2 diabetes) were isolated and dissociated using a method based on the teachings of Fernyhough et al. (1993, Brain Res. 607:117-124), Gardiner et al. (2005, Mol. Cell Neurosci. 28:229-240), and Huang et al. (2003, Diabetes 52:2129-2136). Briefly, DRG were removed from all spinal levels, their roots trimmed, and then the cells were chemically dissociated in 0.125% collagenase (Worthington Biochemical Corp., Lakewood, NJ, USA) in F12 nutrient medium (Invitrogen Canada Inc., Burlington, ON, Canada) for 1.5 h at 37° C. The ganglia were then mechanically dissociated by treatment with 0.05% trypsin (Worthington Biochemical Corp.) in F12 nutrient medium, followed by trituration with a glass pipette. […] The neuron cells were plated onto poly-L-ornithine-laminin-coated NUNC 48-well or 96-well plastic dishes with optically clear glass bottoms in serum-free and insulin-free F12 medium in the presence of modified N2 additives (containing no insulin) at 37° C. in a 95% air/5% CO2 humidified incubator. All cultures were exposed to the following additional conditions: 10 mM D-glucose, 0.1 nM insulin, 0.3 ng/ml NGF, 1 ng/ml NT-3 and 5 ng/ml GDNF (all obtained from Sigma-Aldrich Canada Ltd.). […] Neurite outgrowth was then assessed at 24 hr as previously described by Fernyhough et al. (1993) and Gardiner et al. (2005).
Sensory neurons from cervical, thoracic and lumbar DRG of a 3-4 month old non-diabetic adult male Sprague Dawley rat were isolated and dissociated using the method described in Example 1. The excised and dissociated neuron cells were plated onto poly-L-ornithine-laminin-coated NUNC 48-well or 96-well plastic dishes with optically clear glass bottoms in serum-free and insulin-free F12 medium in the presence of modified N2 additives (containing no insulin) at 37° C. in a 95% air/5% CO2 humidified incubator. All cultures were exposed to the following additional conditions: 10 mM D-glucose, 0.1 nM insulin, 0.3 ng/ml NGF, 1 ng/ml NT-3 and 5 ng/ml GDNF (all obtained from Sigma-Aldrich Canada Ltd.). […] Neurite outgrowth was then assessed at 24 hr.

For data set [2] the following is noted: in vivo in mice; cited from earlier work.
Data set [3] has as its system STZ-induced diabetic Swiss Webster mice. As to the kind of experiment: Reversal of thermal hypoalgesia and IENF loss in STZ-induced diabetic mice, i.p. It is filed as in vivo, mouse. To be noted: 10 mg/kg i.p. daily for 4 weeks from week 8. As for the experimental part:
Swiss Webster (outbred) mice were made diabetic with 2 injections of 90 mg/kg STZ on consecutive days. […] The mice were maintained for 8 weeks after STZ injections. Diabetic neuropathy was well-established in the mice that received STZ injections as evidenced by signs of neuropathy (thermal hypoalgesia). A cohort then received 10 mg/kg VU255035 by i.p. injection daily for 4 weeks.

Another data set concerns M1R. The note with it: cited from earlier work.
For data set [4], the system named is AMP-activated protein kinase (AMPK). As to the kind of experiment: Phosphorylation of AMPK in cultured sensory neurons (Western blot). It is filed as cell-based, rat. The note with it: 10 μM. As for the experimental part:
Samples were taken immediately (time 0) and then after 15 min, 30 min, 60 min, and 6 hr of incubation. Quantitative Western blotting was performed as following the procedure taught in Example 5. DRG homogenates of 5-10 μg of protein were resolved on a 10% SDS-PAGE gel and electroblotted onto nitrocellulose membrane. Blots were then blocked in 5% nonfat milk containing 0.05% Tween-20, rinsed in PBS (pH 7.4) and incubated with the following antibodies: (i) polyclonal anti-phospho AMPK (on Thr-172, 1:1000, Cell Signaling Technology, Danvers, MA, US), and (ii) extracellular signal-regulated kinase (T-ERK; 1:2000, Covance, Princeton, NJ, US). The blots were rinsed, incubated in Western blotting Luminol Reagent (Santa Cruz Biotechnology Inc., Santa Cruz, CA, US) and imaged using a BioRad Fluor-S image analyzer (BioRad, Hercules, CA, US).
(In general: In western blotting, separated proteins are transferred to a membrane and probed.)

In data set [5] the test system is sensory neurons from DRG of Sprague Dawley rat. As to the kind of experiment: Total neurite outgrowth at low concentrations of M1R antagonists (immunostaining). It is filed as cell-based. The note with it: 24 hr culture.
Procedure: Sensory neurons from cervical, thoracic and lumbar DRG of an adult 3-4 month old male Sprague Dawley rat were isolated and dissociated using the method described in Example 1, and then were cultured for 24 h in serum-free and insulin-free F12 medium in the presence of modified N2 additives. […] Neurite outgrowth was then assessed after a culture period of 24 hr.
Total neurite lengths (i.e., the sum of the length of all neurites produced by an individual neuron) were assessed using an immunostaining method. […] Four images were captured per well and the replicate well frequency was set to n=6. The neuronal marker β-tubulin III (Sigma-Aldrich Canada Ltd.) was applied to formalin fixed cells. The marker was tagged with the fluorescent conjugate Alexa Fluor 488 (Invitrogen Canada Ltd.). Fluorescent images were collected using an Olympus IX71 inverted microscope with a 20×/0.45 PH1 [sequence] objective that was suitable for resolving images on plastic surfaces. […] Captured image fluorescence was thereafter converted to a grayscale 8-bit image to quantify total pixel volume. […] Total pixel volume of the neuron specific cell bodies and neurites were quantified. […] The net pixel volume was normalized against the number of neuronal cells per quantified field.
In data set [6] the test system is M1R relative to M(2)-M(5). The note with it: cited from earlier work.

Consider `Cc1scc2c1N(C(=O)CN1CCN(C)CC1)c1ccccc1NC2=O` [telenzepine, Telenzepine], for which, in data set [1], the neurite outgrowth rates entry is reported as “tripled” and the neurite outgrowth result is on record as “more than doubled”.

With `CN1[C@@H]2CC[C@H]1C[C@@H](OC(=O)C(CO)c1ccccc1)C2` (stereo partly shown) [atropine], in data set [1], the neurite outgrowth rates entry was “did not further increase neurite outgrowth rates” and the neurite outgrowth result was “more than tripled”.

On to `O=C(CCNS(=O)(=O)c1cccc2nsnc12)N1CCN(c2ccncc2)CC1` [VU255035, N-(3-oxo-3-(4-(pyridine-4-yl)piperazin-1-yl)propyl)-benzo[c][1,2,5]thiadiazole-4 sulfonamide], for which the “blood brain barrier penetration” value in data set [2] is on record as “excellent blood brain barrier penetration”. Further, in data set [3], the “loss of IENF” value was “significantly reversed loss”. In addition, the “loss of SNP” value in data set [3] is “significantly reversed loss”. Moreover, the thermal hypoalgesia entry in data set [3] was “significant reversal back to control levels of thermal sensitivity”. Moreover, in the data set with M1R, the mode of antagonism entry is “competitive orthosteric antagonist of M1R”. Further, the “total AMPK levels” value in data set [4] is “not affected”. The “phosphorylation of AMPK (P-AMPK) relative to total ERK” value in data set [4] (30-60 min) is on record as “maintained phosphorylation”; in data set [4] (by 15 min), “significantly raised phosphorylation of AMPK”; in data set [4] (by 6 hr), “return to baseline”. Besides, the “concentration that significantly increased total neurite outgrowth” value in data set [5] is no less than 0.03 µM. Besides, the “selectivity to M1R relative to M2, M3, M4 and M5 receptors” value in data set [6] is recorded as 75 times. Moreover, the “selectivity for M1R relative to M(2)-M(5)” value in data set [6] (equilibrium radioligand binding and functional studies) is “greater than 75 fold”.
